# In PubChem BioAssay AID256 (DTP/NCI, 2004):
# Several values for one entry are separate records, joined by “and”; a condition that tells them apart may be missing. Equal values may be shown once. Toxic doses and inconclusive results are not listed.
# Test system: CD2F1 mice, L1210 leukemia ip, survival T/C
# Assay: NCI In Vivo Anticancer Drug Screen. Data for tumor model L1210 Leukemia (intraperitoneal) in CD2F1 (CDF1) mice
# Conditions: higher = longer survival
# Summary of the method: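 In this screen, transplantable tumors were grown in mice given either the compound or its vehicle. Results were expressed as the treated measurement relative to the control measurement.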
# [1] = endpoint: mean survival time, dose: 100.0 mg/kg/injection, schedule: Q01DX009 (ip), vehicle: saline with Tween-80
# [2] = endpoint: mean survival time, dose: 200.0 mg/kg/injection, schedule: Q01DX009 (ip), vehicle: saline with Tween-80
# [3] = endpoint: mean survival time, dose: 50.0 mg/kg/injection, schedule: Q01DX009 (ip), vehicle: Klucel (hydroxypropylcellulose) (HPC)
# [4] = endpoint: mean survival time, dose: 100.0 mg/kg/injection, schedule: Q01DX009 (ip), vehicle: Klucel (hydroxypropylcellulose) (HPC)
# [5] = endpoint: mean survival time, dose: 100.0 mg/kg/injection, schedule: Q01DX001 (ip), vehicle: saline
# [6] = endpoint: mean survival time, dose: 100.0 mg/kg/injection, schedule: Q04DX003 (ip), vehicle: saline
# [7] = endpoint: mean survival time, dose: 200.0 mg/kg/injection, schedule: Q04DX003 (ip), vehicle: saline
# [8] = endpoint: mean survival time, dose: 100.0 mg/kg/injection, schedule: Q01DX001 (ip), vehicle: saline with Tween-80
# [9] = endpoint: mean survival time, dose: 200.0 mg/kg/injection, schedule: Q01DX001 (ip), vehicle: saline with Tween-80
# [10] = endpoint: mean survival time, dose: 100.0 mg/kg/injection, schedule: Q04DX003 (ip), vehicle: saline with Tween-80
# [11] = endpoint: mean survival time, dose: 200.0 mg/kg/injection, schedule: Q04DX003 (ip), vehicle: saline with Tween-80
# [12] = endpoint: mean survival time, dose: 400.0 mg/kg/injection, schedule: Q01DX009 (ip), vehicle: saline with Tween-80
# [13] = endpoint: mean survival time, dose: 400.0 mg/kg/injection, schedule: Q04DX003 (ip), vehicle: saline with Tween-80
# [14] = endpoint: mean survival time, dose: 200.0 mg/kg/injection, schedule: Q01DX009 (ip), vehicle: Klucel (hydroxypropylcellulose) (HPC)
# [15] = endpoint: mean survival time, dose: 400.0 mg/kg/injection, schedule: Q01DX001 (ip), vehicle: saline with Tween-80
smiles,measurement,setting,value
NC(=O)c1ncn2c(=O)n(CCCl)nnc12,T/C,"endpoint: median survival time, dose: 3.0 mg/kg/injection, schedule: Q01DX009 (ip), vehicle: saline",174 % of control
same,T/C,"endpoint: median survival time, dose: 3.12 mg/kg/injection, schedule: Q01DX009 (ip), vehicle: saline",212 % of control
same,T/C,"endpoint: median survival time, dose: 6.0 mg/kg/injection, schedule: Q01DX009 (ip), vehicle: saline",223 % of control
same,T/C,"endpoint: median survival time, dose: 6.25 mg/kg/injection, schedule: Q01DX009 (ip), vehicle: saline",184 % of control and 214 % of control and 365 % of control
same,T/C,"endpoint: median survival time, dose: 6.25 mg/kg/injection, schedule: Q01DX009 (ip), vehicle: suspension in saline",182 % of control
same,T/C,"endpoint: median survival time, dose: 12.0 mg/kg/injection, schedule: Q01DX009 (ip), vehicle: saline",352 % of control
same,T/C,"endpoint: median survival time, dose: 12.5 mg/kg/injection, schedule: Q01DX009 (ip), vehicle: saline",222 % of control and 365 % of control (2×)
same,T/C,"endpoint: median survival time, dose: 12.5 mg/kg/injection, schedule: Q01DX009 (ip), vehicle: suspension in saline",322 % of control
same,T/C,"endpoint: median survival time, dose: 25.0 mg/kg/injection, schedule: Q01DX009 (ip), vehicle: suspension in saline",322 % of control
same,T/C,"endpoint: median survival time, dose: 50.0 mg/kg/injection, schedule: Q01DX009 (ip), vehicle: suspension in saline",100 % of control
CCOC(=O)/C=C/C1CCCCC1,T/C,"endpoint: mean survival time, dose: 50.0 mg/kg/injection, schedule: Q01DX009 (ip), vehicle: saline with Tween-80",96 % of control
same,T/C,[1],104 % of control
same,T/C,[2],96 % of control
CCOC(=O)CC(C)(C)NCc1ccccc1,T/C,"endpoint: mean survival time, dose: 25.0 mg/kg/injection, schedule: Q01DX009 (ip), vehicle: Klucel (hydroxypropylcellulose) (HPC)",91 % of control
same,T/C,[3],97 % of control
same,T/C,[4],91 % of control
O=S(=O)(/C=C\c1ccccc1)Oc1ccccc1,T/C,[5],100 % of control
same,T/C,[6],96 % of control
same,T/C,"endpoint: mean survival time, dose: 200.0 mg/kg/injection, schedule: Q01DX001 (ip), vehicle: saline",100 % of control
same,T/C,[7],95 % of control
same,T/C,"endpoint: mean survival time, dose: 400.0 mg/kg/injection, schedule: Q01DX001 (ip), vehicle: saline",93 % of control
same,T/C,"endpoint: mean survival time, dose: 400.0 mg/kg/injection, schedule: Q04DX003 (ip), vehicle: saline",90 % of control
COC(=O)C1=NNC(C(=O)OC)=NN1,T/C,"endpoint: mean survival time, dose: 12.5 mg/kg/injection, schedule: Q01DX009 (ip), vehicle: water",95 % of control
same,T/C,"endpoint: mean survival time, dose: 25.0 mg/kg/injection, schedule: Q01DX009 (ip), vehicle: water",95 % of control
same,T/C,"endpoint: mean survival time, dose: 50.0 mg/kg/injection, schedule: Q01DX009 (ip), vehicle: water",98 % of control
same,T/C,"endpoint: mean survival time, dose: 100.0 mg/kg/injection, schedule: Q01DX009 (ip), vehicle: water",105 % of control
same,T/C,"endpoint: mean survival time, dose: 200.0 mg/kg/injection, schedule: Q01DX009 (ip), vehicle: water",90 % of control
O=C(Nc1cc2ccccc2o1)N1CCOCC1,T/C,"endpoint: mean survival time, dose: 50.0 mg/kg/injection, schedule: Q01DX001 (ip), vehicle: saline with Tween-80",94 % of control
same,T/C,[8],97 % of control
same,T/C,[9],100 % of control
COC(=O)C(Br)CCC(Br)C(=O)OC (stereo not drawn),T/C,"endpoint: mean survival time, dose: 50.0 mg/kg/injection, schedule: Q04DX003 (ip), vehicle: saline with Tween-80",94 % of control
same,T/C,[1],95 % of control
same,T/C,[10],94 % of control
same,T/C,[2],103 % of control
same,T/C,[11],94 % of control
C=C(C)C(=O)O[C@H]1[C@H]2[C@H](OC(=O)[C@H]2C)[C@H](O)[C@@H](C)[C@@H]2C=CC(=O)[C@]21C,T/C,"endpoint: mean survival time, dose: 3.13 mg/kg/injection, schedule: Q01DX009 (ip), vehicle: saline",91 % of control
same,T/C,"endpoint: mean survival time, dose: 6.25 mg/kg/injection, schedule: Q01DX009 (ip), vehicle: saline",95 % of control
same,T/C,"endpoint: mean survival time, dose: 7.5 mg/kg/injection, schedule: Q01DX009 (ip), vehicle: saline",102 % of control
same,T/C,"endpoint: mean survival time, dose: 12.5 mg/kg/injection, schedule: Q01DX009 (ip), vehicle: saline",93 % of control
same,T/C,"endpoint: mean survival time, dose: 15.0 mg/kg/injection, schedule: Q01DX009 (ip), vehicle: saline",103 % of control
same,T/C,"endpoint: mean survival time, dose: 25.0 mg/kg/injection, schedule: Q01DX009 (ip), vehicle: saline",108 % of control
same,T/C,"endpoint: mean survival time, dose: 30.0 mg/kg/injection, schedule: Q01DX009 (ip), vehicle: saline",102 % of control
O=C(O)CSc1ccn(Cc2ccccc2)c1,T/C,[1],94 % of control
same,T/C,[10],106 % of control
same,T/C,[2],88 % of control
same,T/C,[11],98 % of control
same,T/C,[12],88 % of control
same,T/C,[13],98 % of control
CN(CC(=O)O)C(=S)c1ccccc1,T/C,[10],98 % of control
same,T/C,[11],104 % of control
same,T/C,[13],95 % of control
Cc1ccc(C(C)C)c(OCC2=NCCN2C)c1,T/C,[6],106 % of control
same,T/C,[7],106 % of control
COc1cc(/C=N/n2c(-c3ccccc3)nc3ccccc3c2=O)cc(Br)c1O,T/C,[3],91 % of control
same,T/C,[4],105 % of control
same,T/C,[14],102 % of control
CCOc1ccc(OCC)c(NC(=O)c2ccccc2)c1,T/C,[1],98 % of control
same,T/C,[2],107 % of control
same,T/C,[12],100 % of control
CC1CCC(C(C)C)C(NCCO)C1 (stereo not drawn),T/C,"endpoint: mean survival time, dose: 18.8 mg/kg/injection, schedule: Q01DX009 (ip), vehicle: saline",96 % of control
same,T/C,"endpoint: mean survival time, dose: 37.5 mg/kg/injection, schedule: Q01DX009 (ip), vehicle: saline",97 % of control
same,T/C,"endpoint: mean survival time, dose: 75.0 mg/kg/injection, schedule: Q01DX009 (ip), vehicle: saline",100 % of control
CCC(CC)C(O)C(C)C(C)O (stereo not drawn),T/C,[1],91 % of control
same,T/C,[2],91 % of control
same,T/C,[12],91 % of control
O=C1C(=O)N(CNC(c2ccccc2)c2ccccc2)c2ccccc21,T/C,[8],101 % of control
same,T/C,[15],86 % of control
O=C(Nc1ccc(C2=NCCN2)cc1)c1ccc(C(=O)Nc2ccc(C3=NCCN3)cc2)c(NC(=O)c2ccc(C(=O)Nc3cc(C(=O)Nc4ccc(C5=NCCN5)cc4)ccc3C(=O)Nc3ccc(C4=NCCN4)cc3)cc2)c1,T/C,"endpoint: mean survival time, dose: 12.5 mg/kg/injection, schedule: Q01DX008 (iv), vehicle: other",101 % of control
same,T/C,"endpoint: mean survival time, dose: 25.0 mg/kg/injection, schedule: Q01DX008 (iv), vehicle: other",101 % of control
same,T/C,"endpoint: mean survival time, dose: 50.0 mg/kg/injection, schedule: Q01DX008 (iv), vehicle: other",103 % of control
O=C1c2ccccc2C(=O)N1Cc1cc([N+](=O)[O-])ccc1Cl,T/C,[3],92 % of control
same,T/C,[4],94 % of control
same,T/C,[14],90 % of control
COc1ccc2ccccc2c1-c1c(OC)ccc2ccccc12,T/C,[8],100 % of control
same,T/C,[9],103 % of control
same,T/C,[15],100 % of control
CN(C)CCC(=O)c1ccco1,T/C,"endpoint: mean survival time, dose: 25.0 mg/kg/injection, schedule: Q01DX001 (ip), vehicle: saline",104 % of control
same,T/C,"endpoint: mean survival time, dose: 50.0 mg/kg/injection, schedule: Q01DX001 (ip), vehicle: saline",95 % of control
same,T/C,[5],97 % of control and 103 % of control
Cc1ccc(N=C(N)NC#N)cc1,T/C,[1],91 % of control
same,T/C,[2],93 % of control
same,T/C,[12],91 % of control
CCCCCCCCCCCCC(=O)N1CCOCC1,T/C,[1],105 % of control
same,T/C,[2],94 % of control
same,T/C,[12],103 % of control
Clc1ccc(OCc2sc3ccc(Cl)cc3c2CN2CCOCC2)cc1,T/C,[1],94 % of control
same,T/C,[2],101 % of control
same,T/C,[12],92 % of control
